Key:
[1] = biological target: T1, Programmed cell death protein 1/Programmed cell death 1 ligand 1 (Homo sapiens, UniProt Q15116+Q9NZQ7); assay: Inhibition of Tag2-PD-1/Tag1-PD-L1 (unknown origin) protein-protein interaction incubated for 15 mins by HTRF assay; format: protein-complex assay
[2] = Cytotoxicity against human PBMC cells assessed as reduction in cell growth incubated for 72 hrs by CCK8 assay; format: toxicity, cell-based
[3] = Cytotoxicity against human PBMC cells assessed as reduction in cell growth at >2.22 uM incubated for 72 hrs by CCK8 assay; format: toxicity, cell-based
[4] = Cytotoxicity against human PBMC cells assessed as reduction in cell growth at 0.003 to 2.22 uM incubated for 72 hrs by CCK8 assay; format: toxicity, cell-based; details: dose 0.003-2.22 µM
[5] = biological target: T1, Programmed cell death protein 1/Programmed cell death 1 ligand 1; assay: Inhibition of PD-1/PD-L1 interaction in human CD3+ T-cells co-cultured with Hep3B cells expressing OS8/hPD-L1 assessed as increase in IFN-gamma secretion at 2.22 uM measured after 72 hrs by ELISA; set-up: scale not given: the % may be the effect or the level left
[6] = biological target: T1, Programmed cell death protein 1/Programmed cell death 1 ligand 1; assay: Inhibition of PD-1/PD-L1 interaction in human CD3+ T-cells co-cultured with Hep3B cells expressing OS8/hPD-L1 assessed as increase in IFN-gamma secretion measured after 72 hrs by ELISA; details: dose 0.082-2.222 µM, DDE = dose-dependent effect
[7] = biological target: T1, Programmed cell death protein 1/Programmed cell death 1 ligand 1; assay: Inhibition of PD-1/PD-L1 interaction in CHO cells expressing PD-Ll/TCR cocultured with human Jurkat cells expressing PD-1 assessed as T-cell activation by measuring maximum relative luminescence intensity value at 10 uM incubated for 6 hrs by luciferase reporter gene assay; format: cell-based
[8] = biological target: T1, Programmed cell death protein 1/Programmed cell death 1 ligand 1; assay: Inhibition of C-terminal-Fc-tagged human recombinant PD-1 (25 to 167 residues)/C-terminal-His-tagged recombinant human PD-L1 (19 to 238 residues) interaction incubated for 40 mins by HTRF assay; format: protein-complex assay
[9] = biological target: T1, Programmed cell death protein 1/Programmed cell death 1 ligand 1; assay: Inhibition of PD-1/PD-L1 (unknown origin) interaction; format: protein-complex assay
[10] = biological target: Programmed cell death 1 ligand 1 (Homo sapiens) (UniProt Q9NZQ7); assay: Binding affinity to human PD-L1 assessed as change in melting temperature at 50 uM by thermal shift based DSF assay
[11] = biological target: Programmed cell death 1 ligand 1 (Homo sapiens) (UniProt Q9NZQ7); assay: Binding affinity to human PD-L1 assessed as change in melting temperature at 20 uM by thermal shift based DSF assay
[12] = biological target: Programmed cell death 1 ligand 1 (Homo sapiens) (UniProt Q9NZQ7); assay: Binding affinity to human PD-L1 assessed as change in melting temperature at 10 uM by thermal shift based DSF assay

T1 sequence (Q15116 whole entry): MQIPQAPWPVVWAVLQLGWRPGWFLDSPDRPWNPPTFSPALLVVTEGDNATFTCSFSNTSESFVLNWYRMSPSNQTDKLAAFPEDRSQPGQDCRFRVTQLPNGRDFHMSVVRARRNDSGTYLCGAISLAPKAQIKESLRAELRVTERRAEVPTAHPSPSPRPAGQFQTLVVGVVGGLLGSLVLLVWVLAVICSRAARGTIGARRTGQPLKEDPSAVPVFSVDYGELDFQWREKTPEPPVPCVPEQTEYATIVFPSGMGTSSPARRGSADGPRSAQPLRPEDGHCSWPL
T1 sequence (Q9NZQ7 whole entry): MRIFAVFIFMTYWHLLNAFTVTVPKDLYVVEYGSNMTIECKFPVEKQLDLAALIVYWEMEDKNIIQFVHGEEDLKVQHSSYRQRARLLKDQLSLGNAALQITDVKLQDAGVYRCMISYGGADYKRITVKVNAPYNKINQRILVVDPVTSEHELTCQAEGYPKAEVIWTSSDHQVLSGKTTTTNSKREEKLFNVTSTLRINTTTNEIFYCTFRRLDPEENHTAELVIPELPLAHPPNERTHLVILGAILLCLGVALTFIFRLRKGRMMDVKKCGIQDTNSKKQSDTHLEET
Sequence of Programmed cell death 1 ligand 1 (Homo sapiens) (Q9NZQ7 whole entry): as above

| SMILES | IC50 [1] [µM] | other results |
| --- | --- | --- |
| N#Cc1cccc(COc2cc(Oc3ncnc4c(-c5ccc6c(c5)OCCO6)cccc34)c(Cl)cc2CN2CCCC[C@@H]2C(=O)O)c1 | 0.411 | – |
| N#Cc1cccc(COc2cc(Oc3ncnc4c(-c5ccc6c(c5)OCCO6)cccc34)c(Cl)cc2CN2CCCC[C@H]2C(=O)O)c1 | > 0.5 | – |
| CC(=O)NCCNCc1cc(Cl)c(Oc2ncnc3c(-c4ccc5c(c4)OCCO5)cccc23)cc1OCc1cncc(C#N)c1 | 0.096 | – |
| N#Cc1cncc(COc2cc(Oc3ncnc4c(-c5ccc6c(c5)OCCO6)cccc34)c(Cl)cc2CNC(CO)CO)c1 | 0.00537 | IC50 at 72 h [2]: 5.31 µM; Activity [3]: Toxic; Activity [4]: Non-Toxic; Activity [5]: 654%; inhibition [6]: Dde; RLU [7]: 3370 |
| CC(=O)NCCNCc1cc(Cl)c(Oc2ncnc3c(-c4ccccc4)cccc23)cc1OCc1cncc(C#N)c1 | 0.187 | – |
| CC(CO)(CO)NCc1cc(Cl)c(Oc2ncnc3c(-c4ccc5c(c4)OCCO5)cccc23)cc1OCc1cccc(C#N)c1 | 0.0188 | – |
| N#Cc1cccc(COc2cc(Oc3ncnc4c(-c5ccccc5)cccc34)c(Cl)cc2CNC(CO)CO)c1 | 0.0242 | – |
| N#Cc1cccc(COc2cc(Oc3ncnc4c(-c5ccccc5)cccc34)c(Cl)cc2CN2CCCC[C@H]2C(=O)O)c1 | > 0.5 | – |
| N#Cc1cccc(COc2cc(Oc3ncnc4c(-c5ccc6c(c5)OCCO6)cccc34)c(Cl)cc2CNCCO)c1 | 0.0224 | – |
| N#Cc1cccc(COc2cc(Oc3ncnc4c(-c5ccccc5)cccc34)c(Cl)cc2CNCCO)c1 | 0.0785 | – |
| Cc1c(-c2ccccc2)cccc1-c1nc2cc(CNCCO)ccc2o1 | – | IC50 [8]: ≤ 0.01 µM |
| N#Cc1cccc(COc2cc(Oc3ncnc4c(-c5ccccc5)cccc34)c(Cl)cc2CN2CCCC[C@@H]2C(=O)O)c1 | > 0.5 | – |
| CC(CO)(CO)NCc1cc(Cl)c(Oc2ncnc3c(-c4ccccc4)cccc23)cc1OCc1cncc(C#N)c1 | 0.0325 | – |
| CC(CO)(CO)NCc1cc(Cl)c(Oc2ncnc3c(-c4ccccc4)cccc23)cc1OCc1cccc(C#N)c1 | 0.0229 | – |
| N#Cc1cccc(COc2cc(Oc3ncnc4c(-c5ccc6c(c5)OCCO6)cccc34)c(Cl)cc2CNC(CO)CO)c1 | 0.0311 | – |
| CC(C)OC(=O)[C@H](CO)NCc1cc(Cl)c(OCc2cccc(-c3ccc4c(c3)OCCO4)c2Br)cc1OCc1cccnc1 | – | IC50 [9]: 0.01 µM |
| N#Cc1cncc(COc2cc(Oc3ncnc4c(-c5ccc6c(c5)OCCO6)cccc34)c(Cl)cc2CNCCO)c1 | 0.0122 | – |
| CC(=O)NCCNCc1cc(Cl)c(Oc2ncnc3c(-c4ccc5c(c4)OCCO5)cccc23)cc1OCc1cccc(C#N)c1 | > 0.5 | – |
| CC(C)(NCc1cc(Cl)c(Oc2ncnc3c(-c4ccccc4)cccc23)cc1OCc1cccc(C#N)c1)C(=O)O | 0.15 | – |
| CC(CO)(CO)NCc1cc(Cl)c(Oc2ncnc3c(-c4ccc5c(c4)OCCO5)cccc23)cc1OCc1cncc(C#N)c1 | 0.00157 | IC50 at 72 h [2]: 12.4 µM; ΔTm [10]: 3.25 °C; ΔTm [11]: 3.2 °C; Activity [3]: Toxic; Activity [4]: Non-Toxic; Activity [5]: 820%; inhibition [6]: Dde; ΔTm [12]: 2.35 °C; RLU [7]: 3120 |
| CC(C)(NCc1cc(Cl)c(Oc2ncnc3c(-c4ccc5c(c4)OCCO5)cccc23)cc1OCc1cccc(C#N)c1)C(=O)O | 0.0886 | – |
| N#Cc1cncc(COc2cc(Oc3ncnc4c(-c5ccccc5)cccc34)c(Cl)cc2CNC(CO)CO)c1 | 0.0576 | – |
| CC(=O)NCCNCc1cc(Cl)c(Oc2ncnc3c(-c4ccccc4)cccc23)cc1OCc1cccc(C#N)c1 | > 0.5 | – |
| N#Cc1cncc(COc2cc(Oc3ncnc4c(-c5ccccc5)cccc34)c(Cl)cc2CNCCO)c1 | 0.171 | – |
